Active and inactive are the calls of the source. How the calls were made is not given here.
molecular target: Influenza A virus M2 proton channel (A/TW/4845/1999 H1N1); assay: NMR binding screen, influenza A virus M2 proton channel, Kd (AID 1549); settings: M2 protein

Question: For CCOC(=O)CNc1ncnc2c1nnn2CC, which Kd is on record?
Answer: Its Kd is > 4 mM (inactive).

Question: How did the Kd turn out when O=C(c1cccc(C(F)(F)F)c1)N1CCCC1 was run?
Answer: Its Kd is > 4 mM (inactive).

Question: How did the Kd turn out when Nc1ccc(-n2cccn2)cc1 was run?
Answer: Its Kd is > 4 mM (inactive).

Question: With Cc1cc(N)ccc1NC(=O)c1ccco1 as the molecule, how does the Kd read?
Answer: The Kd was > 4 mM (inactive).

Question: COc1cc(O)c(C(C)=O)c(OC)c1 was tested. Which Kd did it give?
Answer: Its Kd is > 4 mM (inactive).

Question: For CCCN1CCC(N2CCC(O)CC2)CC1, which Kd is on record?
Answer: Its Kd is > 4 mM (inactive).

Question: How did the Kd turn out when C/C(O)=c1/sc2cc(C)nc(=N)n2c1=O was run?
Answer: The Kd was > 4 mM (inactive).

Question: Which Kd does the source give for NC(=O)CSc1ccc(-c2ccco2)nn1 here?
Answer: Its Kd is > 4 mM (inactive).

Question: How did the Kd turn out when CCSc1nc2ccccc2[nH]1 was run?
Answer: The Kd was > 4 mM (inactive).

Question: For CN1CCC(NC(=S)NC2CC2)CC1, which Kd is on record?
Answer: Its Kd is > 4 mM (inactive).

Question: Which Kd does the source give for NC(=O)C1CCN(S(=O)(=O)c2ccccc2)CC1 here?
Answer: The Kd was > 4 mM (inactive).

Question: With COCC(=O)Nc1cc2c3c(c1)CCN3C(=O)CC2 as the molecule, how does the Kd read?
Answer: Its Kd is > 4 mM (inactive).

Question: Cc1occc1C(=O)NCc1ccccc1F was tested. Which Kd did it give?
Answer: The Kd was > 4 mM (inactive).

Question: With COC(=O)C(O)c1ccccc1 (stereo unspecified) as the molecule, how does the Kd read?
Answer: Its Kd is > 4 mM (inactive).

Question: Which Kd does the source give for NC(=O)CSc1nc2ncnc(N)c2[nH]1 here?
Answer: The Kd was > 4 mM (inactive).

Question: Which Kd does the source give for Cc1ccccc1NS(=O)(=O)c1ccc(F)cc1 here?
Answer: The Kd was > 4 mM (inactive).

Question: O=C(/C=C/C=C/c1ccc2c(c1)OCO2)N1CCCCC1 was tested. Which Kd did it give?
Answer: The Kd was > 4 mM (inactive).

Question: O=C(Nc1ccncc1)c1cncc(Br)c1 was tested. Which Kd did it give?
Answer: The Kd was > 4 mM (inactive).

Question: N#Cc1cnn(-c2ccc(Cl)cc2)c1N was tested. Which Kd did it give?
Answer: The Kd was > 4 mM (inactive).

Question: How did the Kd turn out when NCCNC(=S)Nc1ccccc1 was run?
Answer: Its Kd is > 4 mM (inactive).

Question: Nc1nsc(-c2ccccc2)n1 was tested. Which Kd did it give?
Answer: Its Kd is > 4 mM (inactive).

Question: With O=C(O)c1cc2ccccc2cn1 as the molecule, how does the Kd read?
Answer: The Kd was > 4 mM (inactive).

Question: With CC1(C)CC2C1CCC1(C)OC2(C)CCC1O (stereo unspecified) as the molecule, how does the Kd read?
Answer: The Kd was > 4 mM (inactive).

Question: OC1CC(c2ccccc2)NC2(CCCC2)C1 (stereo unspecified) was tested. Which Kd did it give?
Answer: The Kd was > 4 mM (inactive).

Question: For COc1ccc(C(O)c2nccn2C)cc1 (stereo unspecified), which Kd is on record?
Answer: The Kd was > 4 mM (inactive).

Question: With Cc1cc(N)n(C2CCOC(C)(C)C2)n1 (stereo unspecified) as the molecule, how does the Kd read?
Answer: The Kd was > 4 mM (inactive).

Question: With NC12CC3CC(C1)CC(C(=O)O)(C3)C2 as the molecule, how does the Kd read?
Answer: The Kd was > 4 mM (inactive).

Question: With COCC(=O)OCn1nnc2ccccc2c1=O as the molecule, how does the Kd read?
Answer: Its Kd is > 4 mM (inactive).

Question: CC(C)(C)P(=O)(O)c1ccccc1 was tested. Which Kd did it give?
Answer: The Kd was > 4 mM (inactive).

Question: With Cc1ccc(CN2C3=NC(=O)CN3c3ccccc32)cc1 as the molecule, how does the Kd read?
Answer: The Kd was > 4 mM (inactive).

Question: How did the Kd turn out when O=C(c1ccco1)N1CCN(Cc2cccc(F)c2)CC1 was run?
Answer: Its Kd is > 4 mM (inactive).

Question: With Nc1cccc(S(=O)(=O)N2CCCC2)c1 as the molecule, how does the Kd read?
Answer: Its Kd is > 4 mM (inactive).

Question: How did the Kd turn out when C/C=C(/C)C(=O)O[C@@H]1[C@H](OC(C)=O)[C@@]2(CO)C(CC1(C)C)C1=CCC3[C@@]4(C)CC[C@H](O[C@@H]5O[C@H](C(=O)O)[C@@H](O[C@@H]6O[C@H](CO)[C@@H](O)[C@H](O)[C@H]6O)[C@H](O)[C@H]5O[C@@H]5O[C@H](CO)[C@@H](O)[C@H](O)[C@H]5O)[C@](C)(CO)C4CC[C@@]3(C)[C@]1(C)C[C@H]2O (stereo partly specified) was run?
Answer: Its Kd is > 4 mM (inactive).

Question: Which Kd does the source give for NS(=O)(=O)c1ccc(NC(=O)C(F)(F)F)cc1 here?
Answer: Its Kd is > 4 mM (inactive).

Question: With CNC(=S)Nc1ccc(OC)cc1C as the molecule, how does the Kd read?
Answer: Its Kd is > 4 mM (inactive).

Question: For Cc1cccc(NC(=O)c2ccccc2C(=O)O)c1, which Kd is on record?
Answer: The Kd was > 4 mM (inactive).

Question: With COc1nc(-c2ccccc2)ccc1-c1noc(C)n1 as the molecule, how does the Kd read?
Answer: The Kd was > 4 mM (inactive).

Question: With O=c1c[n+]([O-])c2ccccc2n1OCc1ccccc1 as the molecule, how does the Kd read?
Answer: The Kd was > 4 mM (inactive).

Question: For CC1(C)C(=O)C=C[C@@]2(C)C1C[C@@H](O)[C@]1(C)C2CC[C@@]2(C)[C@H](c3ccoc3)OC(=O)[C@H]3O[C@]321 (stereo partly specified), which Kd is on record?
Answer: Its Kd is > 4 mM (inactive).

Question: Which Kd does the source give for CNCc1ccco1 here?
Answer: Its Kd is > 4 mM (inactive).

Question: How did the Kd turn out when Cc1cc(=O)n(CC(C)C)c(O)c1C#N was run?
Answer: The Kd was > 4 mM (inactive).

Question: NCc1ccc2occc2c1 was tested. Which Kd did it give?
Answer: The Kd was > 4 mM (inactive).

Question: Which Kd does the source give for O=C(Nc1cccc2ncccc12)c1cccnc1 here?
Answer: Its Kd is > 4 mM (inactive).

Question: How did the Kd turn out when CC(=O)O[C@H]1C[C@@H](OC(C)=O)C(C)(C)C2CC(=O)[C@]3(C)C(CC[C@@]4(C)[C@H](c5ccoc5)OC(=O)[C@H]5O[C@]543)[C@]21C (stereo partly specified) was run?
Answer: Its Kd is > 4 mM (inactive).

Question: Which Kd does the source give for Cc1cc(NC(=O)c2ccc3c(c2)OCCO3)no1 here?
Answer: The Kd was > 4 mM (inactive).

Question: For C=C1CCC2C(CC2(C)C)C(=C)CC/C1=N/O (stereo unspecified), which Kd is on record?
Answer: The Kd was > 4 mM (inactive).

Reference: PubChem BioAssay AID1549 (Sanford-Burnham Center for Chemical Genomics, 2009)
